Data published in PubChem BioAssay AID2060908 (Molecular Pharmacology Branch, DTP, NCI, 2025).

Tested on: 186277-243-T-J2-PDC complex spheroids, viability
Test: Anticancer human tumor 186277-243-T-J2-PDC patient-derived colon adenocarcinoma cell line growth inhibition [RAS]
Conditions: for IC50: curve of first compound; for viability, T/C: stronger effect = lower value
In short: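 Tumour cells grown as complex spheroids with HUVEC endothelial cells and mesenchymal stem cells, treated with RAS pathway inhibitor combinations. Each agent spans half-log steps from near clinical Cmax, or 10 microM where Cmax is unknown.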

[1] = second compound 0.000949 µM, first compound 0.0316 µM
[2] = second compound 0.000949 µM, first compound 0.1 µM
[3] = second compound 0.000949 µM, first compound 0.316 µM
[4] = second compound 0.000949 µM, first compound 1 µM
[5] = second compound 0.000949 µM, first compound 3.16 µM
[6] = second compound 0.000949 µM, first compound 10 µM
[7] = second compound 0.003 µM, first compound 0.0316 µM
[8] = second compound 0.003 µM, first compound 0.1 µM
[9] = second compound 0.003 µM, first compound 0.316 µM
[10] = second compound 0.003 µM, first compound 1 µM
[11] = second compound 0.003 µM, first compound 3.16 µM
[12] = second compound 0.003 µM, first compound 10 µM
[13] = second compound 0.00949 µM, first compound 0.0316 µM
[14] = second compound 0.00949 µM, first compound 0.1 µM
[15] = second compound 0.00949 µM, first compound 0.316 µM
[16] = second compound 0.00949 µM, first compound 1 µM
[17] = second compound 0.00949 µM, first compound 3.16 µM
[18] = second compound 0.00949 µM, first compound 10 µM
[19] = second compound 0.03 µM, first compound 0.0316 µM
[20] = second compound 0.03 µM, first compound 0.1 µM
[21] = second compound 0.03 µM, first compound 0.316 µM
[22] = second compound 0.03 µM, first compound 1 µM
[23] = second compound 0.03 µM, first compound 3.16 µM
[24] = second compound 0.03 µM, first compound 10 µM
[25] = second compound 0.0949 µM, first compound 0.0316 µM
[26] = second compound 0.0949 µM, first compound 0.1 µM
[27] = second compound 0.0949 µM, first compound 0.316 µM
[28] = second compound 0.0949 µM, first compound 1 µM
[29] = second compound 0.0949 µM, first compound 3.16 µM
[30] = second compound 0.0949 µM, first compound 10 µM
[31] = second compound 0.3 µM, first compound 0.0316 µM
[32] = second compound 0.3 µM, first compound 0.1 µM
[33] = second compound 0.3 µM, first compound 0.316 µM
[34] = second compound 0.3 µM, first compound 1 µM
[35] = second compound 0.3 µM, first compound 3.16 µM
[36] = second compound 0.3 µM, first compound 10 µM
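Also: spheroids exposed to compounds for 7 days before viability read.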

Work on CC(Nc1ccc2c(c1)OCCn1cc(N3C(=O)OCC3C(F)F)nc1-2)C(N)=O (centres undefined) + CCn1c(-c2cc(N3CCN(C)CC3)cnc2C(C)OC)c2c3cc(ccc31)-c1csc(n1)CC(NC(=O)C1CC1C)C(=O)N1CCCC(N1)C(=O)OCC(C)(C)C2 yielded an IC50 (second compound 0.000949 µM) of 0.347 µM, an IC50 (second compound 0.003 µM) of 0.0885 µM and an IC50 (second compound 0.00949 µM) of less than 0.0316 µM. For the same compound, the IC50 (second compound 0.03 µM) was less than 0.0316 µM, the IC50 (second compound 0.0949 µM) was less than 0.0316 µM and the IC50 (second compound 0.3 µM) was less than 0.0316 µM. The viability, T/C [1] was 97.7%, the viability, T/C [2] was 86.3% and the viability, T/C [3] was 48.7%. The viability, T/C [4] was 27.3%, the viability, T/C [5] was 14.1% and the viability, T/C [6] was 7.59%. It also gave a viability, T/C [7] of 81.8%, a viability, T/C [8] of 46.6% and a viability, T/C [9] of 16.8%. The viability, T/C [10] was 8.63%, the viability, T/C [11] was 3.59% and the viability, T/C [12] was 2.34%. It also gave a viability, T/C [13] of 28%, a viability, T/C [14] of 14.8% and a viability, T/C [15] of 4.68%. It also gave a viability, T/C [16] of 2.07%, a viability, T/C [17] of 1.18% and a viability, T/C [18] of 0.72%. For the same compound, the viability, T/C [19] was 8.29%, the viability, T/C [20] was 4.59% and the viability, T/C [21] was 1.59%. The viability, T/C [22] was 0.91%, the viability, T/C [23] was 0.49% and the viability, T/C [24] was 0.23%. The viability, T/C [25] was 4.51%, the viability, T/C [26] was 2.41% and the viability, T/C [27] was 1.01%. It also gave a viability, T/C [28] of 0.59%, a viability, T/C [29] of 0.45% and a viability, T/C [30] of 0.24%. For the same compound, the viability, T/C [31] was 3.65%, the viability, T/C [32] was 2.08% and the viability, T/C [33] was 0.89%. For the same compound, the viability, T/C [34] was 0.55%, the viability, T/C [35] was 0.35% and the viability, T/C [36] was 0.29%.

For C[C@@H](NC(=O)c1ncnc(N)c1Cl)c1ncc(C(=O)Nc2cc(C(F)(F)F)c(Cl)cn2)s1 + CCn1c(-c2cc(N3CCN(C)CC3)cnc2C(C)OC)c2c3cc(ccc31)-c1csc(n1)CC(NC(=O)C1CC1C)C(=O)N1CCCC(N1)C(=O)OCC(C)(C)C2, the IC50 (second compound 0.000949 µM) was greater than 10 µM, the IC50 (second compound 0.003 µM) was greater than 10 µM and the IC50 (second compound 0.00949 µM) was 3.63 µM. It also gave an IC50 (second compound 0.03 µM) of less than 0.0316 µM, an IC50 (second compound 0.0949 µM) of less than 0.0316 µM and an IC50 (second compound 0.3 µM) of less than 0.0316 µM. It also gave a viability, T/C [1] of 104%, a viability, T/C [2] of 87.5% and a viability, T/C [3] of 88%. The viability, T/C [4] was 88.7%, the viability, T/C [5] was 85.9% and the viability, T/C [6] was 73.6%. The viability, T/C [7] was 108%, the viability, T/C [8] was 114% and the viability, T/C [9] was 109%. The viability, T/C [10] was 82.6%, the viability, T/C [11] was 93.2% and the viability, T/C [12] was 54.4%. It also gave a viability, T/C [13] of 61.7%, a viability, T/C [14] of 83.8% and a viability, T/C [15] of 78.6%. The viability, T/C [16] was 71.4%, the viability, T/C [17] was 54.2% and the viability, T/C [18] was 19.8%. It also gave a viability, T/C [19] of 21.2%, a viability, T/C [20] of 23.7% and a viability, T/C [21] of 25.3%. For the same compound, the viability, T/C [22] was 20.9%, the viability, T/C [23] was 16.9% and the viability, T/C [24] was 10%. For the same compound, the viability, T/C [25] was 9.22%, the viability, T/C [26] was 10.4% and the viability, T/C [27] was 10%. The viability, T/C [28] was 9.11%, the viability, T/C [29] was 8.59% and the viability, T/C [30] was 7.09%. The viability, T/C [31] was 7.68%, the viability, T/C [32] was 8.08% and the viability, T/C [33] was 7.77%. The viability, T/C [34] was 7.85%, the viability, T/C [35] was 7.78% and the viability, T/C [36] was 4.79%.
